In publication PMC10107299, “Neutralizing the Impact of the Virulence Factor LecA from Pseudomonas aeruginosa on Human Cells with New Glycomimetic Inhibitors” (Angewandte Chemie (International Ed. in English), 2023):

Tests used:
LecA-treated H1299 cells = test: Scratch-wound healing assay; type: cell-based, human; conditions: 3.9 μM LecA; for Wound closure after 24 h: 100 μM inhibitor
Excerpt: The opportunistic bacterium P. aeruginosa depends on favorable circumstances to infect the host, such as a suppressed immunity or wounded skin.[34, 35] Chronic infection of wounds with P. aeruginosa increases the risk of nosocomial spread, are difficult to treat and after systemic dissemination can result in a fatal outcome in patients. In a previous study, we investigated the effect of the fucose‐binding P. aeruginosa lectin LecB on epithelial wound healing.[36] […] Here, we investigated whether LecA also impairs the same physiological process. To this end, H1299 cell monolayers were grown, and after scratching with a pipette tip, wound closure was monitored microscopically (Figure 5a). […] The mode of action of LecA in the wound healing process remains elusive. […] Importantly, when LecA was added to the cells together with L2 (10 μM and 100 μM, respectively), the wound healed at a similar rate to the control in absence of LecA. Remarkably, in presence of 10 μM L2, cell migration was restored to about 70 % compared to the negative control, and the wound closed by 80 % after 24 h of incubation with 100 μM L2 (Figure 5b). […]
using NIS-Element Confocal 4.20 from Nikon and ImageJ 1.52a from Laboratory for Optical and Computational Instrumentation.
Cell proliferation (MTT) assay […]
Subsequently, 10 μL of MTT labelling solution was added to each well and the cells were incubated for another 4 h at 37 °C. […] The next day, the absorbance of the samples was measured at 550 nm using a BioTek microplate reader (BioTek Instruments Inc., Winooski, VT, USA). The data were analyzed using Microsoft Excel and GraphPad Prism […]
2 x 10^5 cells were seeded on 12-well plates and formed a confluent monolayer after 24 h. […] The samples were imaged with an EVOS microscope (PEQLAB by VWR Life Sciences, Avantor Performance Materials Inc., Center Valley, PA, USA) and analyzed with ImageJ and Microsoft Excel. […] Experiment was repeated independently three times (N = 3) and evaluated with two tailed, […]

H1299 cells = test: Cell proliferation (MTT) cytotoxicity assay; type: cell-based, human; conditions: 24 h; for Cytotoxicity on H1299 cells: 10–100 μM; for Inhibition of cell proliferation: 500 and 750 μM
Description: Additionally, the cytotoxicity of sulfonated ligands K2 and L2 on H1299 cells was evaluated prior to the invasion assay (Figure S12). […]
Cell proliferation (MTT) assay
The MTT assay (MTT Cell Proliferation Kit, Roche Holding AG, Basel, Switzerland) was used to evaluate the cytotoxicity of inhibitors on H1299 cells. 3.5 x 10^4 cells per well were transferred to a 96-well plate with a U-bottom. The cells were centrifuged at 1600 x g for 3 min at room temperature. The cell pellet was resuspended in 100 μL of inhibitor solutions (1–750 µM) and transferred to a 96-well flat-bottomed plate. The cells were incubated for 24 h at 37 °C.
Subsequently, 10 μL of MTT labelling solution was added to each well and the cells were incubated for another 4 h at 37 °C. Afterwards, 100 μL of the kit solubilization reagent were added to each well and the plate was incubated at 37 °C overnight. The next day, the absorbance of the samples was measured at 550 nm using a BioTek microplate reader (BioTek Instruments

Structure (SMILES) | Cell migration / wound closure restored after 24 h (LecA-treated H1299 cells; 10 μM inhibitor) | Wound closure after 24 h (LecA-treated H1299 cells) | Cytotoxicity on H1299 cells (H1299 cells) | Inhibition of cell proliferation (H1299 cells)
O=C(CCc1ccc(O[C@@H]2O[C@H](CO)[C@H](O)[C@H](O)[C@H]2O)cc1)Nc1ccc(CCc2ccc(NC(=O)CCc3ccc(O[C@@H]4O[C@H](CO)[C@H](O)[C@H](O)[C@H]4O)cc3)cc2S(=O)(=O)O)c(S(=O)(=O)O)c1 [Compound L2] | about 70% | 80% | did not exhibit significant toxicity | > 50%
Cc1ccc(NC(=O)CCc2ccc(O[C@@H]3O[C@H](CO)[C@H](O)[C@H](O)[C@H]3O)cc2)cc1S(=O)(=O)O [Compound K2] | – | about 50% | did not exhibit significant toxicity | > 50%
